Results taken from patent publication US6689767B2, “Triterpenes having antibacterial activity” (Regents of the University of Minnesota, priority 2000, dated 2004).
Where two headings read alike, the source gives them in different places.

Experiments:
Type in all cases: cell-based
[1] = tested on: Escherichia coli; assay: Kirby-Bauer disk diffusion growth inhibition, Escherichia coli; conditions: for zone of inhibition at 1000 µg/mL: 1 mg/ml in DMSO; for zone of inhibition at 0.125 µg/mL: read-out: Zone of inhibition Escherichia coli
Procedure: (§1) The compounds disclosed herein were tested for growth inhibition against four strains of bacteria: Escherichia coli, Staphylococcus aureus, methicillin-resistant Staphylococcus aureus, and Bacillus subtilis. […] They represent […]. E. coli is a gram-negative, non-spore forming, rod-shaped, opportunistic pathogen that resides in the human digestive tract. S. aureus is a gram positive coccus, is usually found morphologically as a […], and is an opportunistic human pathogen, often residing on or in the skin. B. subtilis is a gram positive spore-forming rod. Its native environment is the soil. The chemicals were tested for growth-inhibition of the bacteria by the Kirby-Bauer method. See, e.g., Microbiology, third edition; Lansing M. Prescott, John P. Harley, and Donald A. Klein; Wm. C. Brown Publishers.
(§2) Mueller-Hinton agar (Difco Lab, Michigan) was prepared according to the manufacturer's directions, and 20 ml was dispensed in each sterile petri dish. Sterile nutrient broth (Difco Lab, Michigan) was also prepared according to the manufacturer's directions.
(§3) Bacteria were grown in liquid nutrient broth for 18 hours at 37° C. until they were turbid.
(§4) An aliquot of 0.5 ml of cultured bacteria was aseptically transferred to the surface of a Mueller-Hinton agar plat, and spread using a cotton-tipped swab. Plates were then allowed to dry for 5 minutes. Then a 10 mm diameter filter paper disk impregnated with the test chemical was placed with sterile forceps on the plate. The disks were impregnated with 100 μl of a solution of the test compound in DMSO or in water, at the indicated concentrations in Table 1.
(§5) The zones of inhibition were measured after 18 hours growth at 37° C. Tests were done in triplicate.
(§6) Additional compounds were tested for activity against E. coli, laboratory strain S. aureus (not methicillin resistant), and B. subtilis. The compounds were tested by the disk diffusion method, as in Example 1, with application of a 10 mg/mil solution of the test compound in DMSO.

[2] = tested on: Staphylococcus aureus; assay: Kirby-Bauer disk diffusion growth inhibition, Staphylococcus aureus; conditions: for zone of inhibition at 1000 µg/mL: 1 mg/ml in DMSO; for zone of inhibition at 0.125 µg/mL: read-out: Zone of inhibition Staphylococcus aureus
Procedure: as §1, §2, §3, §4, §5, §6
Derivatives of lupeol were tested for inhibition of bacterial growth using the Kirby-Bauer disk diffusion method and by growth in liquid culture. For the disk diffusion method, compounds were dissolved in DMSO and 100 μl was added to the 10 mm filter paper disk. The amount of compound applied to the disk varied. The amount applied for each compound was as follows: lupeol (50 μg), lupeol-3-maleate (15 μg), lupeol-3-thiodiglycolate (15 μg), lupeol-3-dimethyl succinate (60 μg), lupeol-3-phosphate (30 μg), lupenone (50 μg), lupenon-3-oxime (50 μg), lupeol-3-amine (50 μg), lupenon-1,2-ene-2-ol (50 μg). In liquid culture, the compounds were dissolved in DMSO at 1 mg/ml and then 100 μl was added to 7 ml of sterile broth, along with a 1/200 dilution of freshly grown bacterial liquid culture.

[3] = tested on: Bacillus subtilis; assay: Kirby-Bauer disk diffusion growth inhibition, Bacillus subtilis; conditions: for zone of inhibition at 1000 µg/mL: 1 mg/ml in DMSO; for zone of inhibition at 0.125 µg/mL: read-out: Zone of inhibition Bacillus subtilis
Procedure: as §1, §2, §3, §4, §5, §6

[4] = 125 ng/ml in water, 100 μl on 10 mm disk, 18 hours 37° C.
[5] = Escherichia coli, 100 μl on 10 mm disk, 18 hours 37° C.
[6] = Staphylococcus aureus, 100 μl on 10 mm disk, 18 hours 37° C.
[7] = Bacillus subtilis, 100 μl on 10 mm disk, 18 hours 37° C.
[8] = Escherichia coli, 125 ng/ml in water, 100 μl on 10 mm disk, 18 hours 37° C.
[9] = Staphylococcus aureus, 125 ng/ml in water, 100 μl on 10 mm disk, 18 hours 37° C.
[10] = Bacillus subtilis, 125 ng/ml in water, 100 μl on 10 mm disk, 18 hours 37° C.
[11] = 0.5 ng/ml in water, 100 μl on 10 mm disk, 18 hours 37° C.
[12] = 5 mg/ml in DMSO, 100 μl on 10 mm disk, 18 hours 37° C.
[13] = 10 mg/ml in DMSO, 100 μl on 10 mm disk, 18 hours 37° C.

## Betulin diglycolate
[1]; [4]
  Zone of inhibition Escherichia coli: 10.0 mm
[2]; [4]
  Zone of inhibition Staphylococcus aureus: 0 mm
[3]; [4]
  Zone of inhibition Bacillus subtilis: 0 mm

## Allobetulin-3-poly (ethylene glycol) bis (carboxymethyl) ether ester
[1]; [4]
  Zone of inhibition Escherichia coli: 0 mm
[2]; [4]
  Zone of inhibition Staphylococcus aureus: 0 mm
[3]; [4]
  Zone of inhibition Bacillus subtilis: 0 mm

## C=C(C)C1CCC2(COC(=O)CCC(=O)O)CC[C@@]3(C)C(CCC4[C@@]5(C)CCC(O)C(C)(C)C5CC[C@]43C)C12 (stereo partly drawn) [Betulin 28-succinate, Betulin-28-succinate]
[1]; [5]
  zone of inhibition at 1000 µg/mL: 0 mm
[2]; [6]
  zone of inhibition at 1000 µg/mL: 0 mm
[3]; [7]
  zone of inhibition at 1000 µg/mL: 0 mm

## CC1(C)CCC23CC[C@@]4(C)C(CCC5[C@@]6(C)CCC(=O)C(C)(C)C6CC[C@]54C)C2C1OC3 (stereo partly drawn) [Allobetulon]
[1]; [8]
  zone of inhibition at 0.125 µg/mL: 0 mm
[2]; [9]
  zone of inhibition at 0.125 µg/mL: 0 mm
[3]; [10]
  zone of inhibition at 0.125 µg/mL: 0 mm

## CC1(C)CCC23CCC4(C)C(CCC5C6(C)CCC(OC(=O)CCCC(=O)O)C(C)(C)C6CCC54C)C2C1OC3 (stereo not drawn) [Allobetulin 3-glutarate, Allobetulin-3-glutarate]
[1]; [8]
  zone of inhibition at 0.125 µg/mL: 0 mm
[1]; [5]
  zone of inhibition at 1000 µg/mL: 0 mm
[2]; [9]
  zone of inhibition at 0.125 µg/mL: 0 mm
[2]; [6]
  zone of inhibition at 1000 µg/mL: 0 mm
[3]; [10]
  zone of inhibition at 0.125 µg/mL: 0 mm
[3]; [7]
  zone of inhibition at 1000 µg/mL: 0 mm

## C=C(C)C1CCC2(COC(=O)[C@@H](N)CCC(=O)OCc3ccccc3)CCC3(C)C(CCC4C5(C)CCC(OC(=O)[C@@H](N)CCC(=O)OCc6ccccc6)C(C)(C)C5CCC43C)C12 (stereo partly drawn) [Betulin Di-(L-glutamic acid γ-benzyl ester) ester]
[1]; [4]
  Zone of inhibition Escherichia coli: 0 mm
[2]; [4]
  Zone of inhibition Staphylococcus aureus: 0 mm
[3]; [4]
  Zone of inhibition Bacillus subtilis: 0 mm

## Betulin dianiline ester
[1]; [4]
  Zone of inhibition Escherichia coli: 0 mm
[2]; [4]
  Zone of inhibition Staphylococcus aureus: 0 mm
[3]; [4]
  Zone of inhibition Bacillus subtilis: 0 mm

## CC1(C)CCC23CC[C@@]4(C)C(CCC5[C@@]6(C)CC[C@H](O)C(C)(C)C6CC[C@]54C)C2C1OC3 (stereo partly drawn) [Allobetulin]
[1]; [5]
  zone of inhibition at 1000 µg/mL: 0 mm
[2]; [6]
  zone of inhibition at 1000 µg/mL: 0 mm
[3]; [7]
  zone of inhibition at 1000 µg/mL: 0 mm

## CC(=O)OC1CCC2(C)C(CCC3(C)C2CCC2C4C5OC(=O)C4(CCC5(C)C)CCC23C)C1(C)C (stereo not drawn) [3β-Acetoxy-19αH-19,28 lactone oleanan]
[1]; [4]
  Zone of inhibition Escherichia coli: 0 mm
[2]; [4]
  Zone of inhibition Staphylococcus aureus: 0 mm
[3]; [4]
  Zone of inhibition Bacillus subtilis: 0 mm

## CC1(C)CCC23CC[C@@]4(C)C(CCC5[C@@]6(C)CC[C@H](O)C(C)(C)C6CC[C@]54C)C2C1OC3=O (stereo partly drawn) [Allobetulin lactone]
[1]; Escherichia coli, 18 h
  zone of inhibition at 0.125 µg/mL: 0 mm
[2]; Staphylococcus aureus, 18 h
  zone of inhibition at 0.125 µg/mL: 0 mm
[3]; Bacillus subtilis, 18 h
  zone of inhibition at 0.125 µg/mL: 0 mm

## Hederine hydrate
[1]; [11]
  Zone of inhibition Escherichia coli: 0 mm
[2]; [11]
  Zone of inhibition Staphylococcus aureus: 0 mm
[3]; [11]
  Zone of inhibition Bacillus subtilis: 0 mm

## CC1(C)CCC23CCC4(C)C(CCC5C6(C)CCC(OC(=O)CCC(=O)O)C(C)(C)C6CCC54C)C2C1OC3 (stereo not drawn) [Allobetulin 3-succinate, Allobetulin-3-succinate]
[1]; [12]
  Zone of inhibition Escherichia coli: 0 mm
[2]; [12]
  Zone of inhibition Staphylococcus aureus: 0 mm
[3]; [12]
  Zone of inhibition Bacillus subtilis: 0 mm

## C=C(C)C1CCC2(COC(=O)CCCC(=O)O)CCC3(C)C(CCC4C5(C)CCC(O)C(C)(C)C5CCC43C)C12 (stereo not drawn) [Betulin 28-glutarate, Betulin-28-glutarate]
[1]; [8]
  zone of inhibition at 0.125 µg/mL: 0 mm
[2]; [9]
  zone of inhibition at 0.125 µg/mL: 0 mm
[3]; [10]
  zone of inhibition at 0.125 µg/mL: 0 mm

## C=C(C)[C@@H]1CC[C@]2(CO)CC[C@]3(C)[C@H](CC[C@@H]4[C@@]5(C)CC[C@H](O)C(C)(C)[C@@H]5CC[C@]43C)[C@@H]12 [Betulin]
[1]; [5]
  zone of inhibition at 1000 µg/mL: 0 mm
[2]; [6]
  zone of inhibition at 1000 µg/mL: 0 mm
[3]; [7]
  zone of inhibition at 1000 µg/mL: 0 mm

## Poly (ethylene glycol) bis (carboxymethyl) ester
[1]; [4]
  Zone of inhibition Escherichia coli: 0 mm
[2]; [4]
  Zone of inhibition Staphylococcus aureus: 0 mm
[3]; [4]
  Zone of inhibition Bacillus subtilis: 0 mm

## Allobetulin-3-phthalate [Allobetulin 3-phthalate]
[1]; [4]
  Zone of inhibition Escherichia coli: 0 mm
[2]; [4]
  Zone of inhibition Staphylococcus aureus: 0 mm
[3]; [4]
  Zone of inhibition Bacillus subtilis: 0 mm

## CC1(C)S[C@@H]2[C@H](NC(=O)Cc3ccccc3)C(=O)N2[C@H]1C(=O)O [Pencillin G, reference compound]
[1]; control antibiotic, 10 units
  Zone of inhibition Escherichia coli: 0 mm
[2]; control antibiotic, 10 units
  Zone of inhibition Staphylococcus aureus: 40.0 mm
[3]; control antibiotic, 10 units
  Zone of inhibition Bacillus subtilis: 25.0 mm

## Allobetulin 2-valine-ester
[1]; [4]
  Zone of inhibition Escherichia coli: 0 mm
[2]; [4]
  Zone of inhibition Staphylococcus aureus: 0 mm
[3]; [4]
  Zone of inhibition Bacillus subtilis: 0 mm

## C=C(C)C1CCC2(C)CCC3(C)C(CCC4C5(C)CCC(OC(=O)CCC(=O)O)C(C)(C)C5CCC43C)C12 (stereo not drawn) [Lupeol-3-succinate]
[1]; [8]
  zone of inhibition at 0.125 µg/mL: 0 mm
[2]; [9]
  zone of inhibition at 0.125 µg/mL: 0 mm
[3]; [10]
  zone of inhibition at 0.125 µg/mL: 0 mm

## CN(C)[C@@H]1C(O)=C(C(N)=O)C(=O)[C@@]2(O)C(O)=C3C(=O)c4c(O)cccc4[C@@](C)(O)[C@H]3C[C@@H]12 [Tetracycline, reference compound]
[1]; Escherichia coli, control antibiotic, 30 mcg
  zone of inhibition at 30 µg/disc: 19 mm
[2]; Staphylococcus aureus, control antibiotic, 30 mcg
  zone of inhibition at 30 µg/disc: 26 mm
[3]; Bacillus subtilis, control antibiotic, 30 mcg
  zone of inhibition at 30 µg/disc: 31 mm

## CC1(C)CCC23CC[C@@]4(C)C(CCC5[C@@]6(C)CCC(OP(=O)(O)O)C(C)(C)C6CC[C@]54C)C2C1OC3 (stereo partly drawn) [Allobetulin 3-phosphate, allobetulin-3-phosphate]
[1]; [8]
  zone of inhibition at 0.125 µg/mL: 0 mm
[2]; [9]
  zone of inhibition at 0.125 µg/mL: 0 mm
[3]; [10]
  zone of inhibition at 0.125 µg/mL: 0 mm

## Allobetulin 2-alanine ester
[1]; [4]
  Zone of inhibition Escherichia coli: 0 mm
[2]; [4]
  Zone of inhibition Staphylococcus aureus: 0 mm
[3]; [4]
  Zone of inhibition Bacillus subtilis: 0 mm

## C=C(C)[C@@H]1CC[C@]2(COC(=O)[C@@H]3CCCN3)CC[C@]3(C)[C@H](CC[C@@H]4[C@@]5(C)CC[C@H](OC(=O)[C@@H]6CCCN6)C(C)(C)[C@@H]5CC[C@]43C)[C@@H]12 [Betulin Di-(L-proline) ester]
[1]; [4]
  Zone of inhibition Escherichia coli: 0 mm
[2]; [4]
  Zone of inhibition Staphylococcus aureus: 0 mm
[3]; [4]
  Zone of inhibition Bacillus subtilis: 0 mm

## CC1(C)CCC23CC[C@@]4(C)C(CCC5[C@@]6(C)CCC(OP(=O)(O)O)C(C)(C)C6CC[C@]54C)C2C1OC3=O (stereo partly drawn) [Allobetulin lactone phosphate, allobetulin lactone-3-phosphate]
[1]; [4]
  Zone of inhibition Escherichia coli: 0 mm
[2]; [4]
  Zone of inhibition Staphylococcus aureus: 0 mm
[3]; [4]
  Zone of inhibition Bacillus subtilis: 0 mm

## Allobetulin glycine
[1]; [4]
  Zone of inhibition Escherichia coli: 0 mm
[2]; [4]
  Zone of inhibition Staphylococcus aureus: 0 mm
[3]; [4]
  Zone of inhibition Bacillus subtilis: 0 mm

## Allobetulin ethanol amine
[1]; [4]
  Zone of inhibition Escherichia coli: 0 mm
[2]; [4]
  Zone of inhibition Staphylococcus aureus: 0 mm
[3]; [4]
  Zone of inhibition Bacillus subtilis: 0 mm

## C=C(C)C1CCC2(COC(=O)C(N)Cc3ccccc3)CCC3(C)C(CCC4C5(C)CCC(OC(=O)C(N)Cc6ccccc6)C(C)(C)C5CCC43C)C12 (stereo not drawn) [Betulin-3,28-diphenylalanine ester]
[1]; [4]
  Zone of inhibition Escherichia coli: 0 mm
[2]; [4]
  Zone of inhibition Staphylococcus aureus: 0 mm
[3]; [4]
  Zone of inhibition Bacillus subtilis: 0 mm

## C=C(C)[C@@H]1CC[C@]2(COC(=O)/C=C\C(=O)O)CC[C@]3(C)[C@H](CC[C@@H]4[C@@]5(C)CC[C@H](O)C(C)(C)[C@@H]5CC[C@]43C)[C@@H]12 [Betulin 28-maleate, Betulin-28-maleate]
[1]; [13]
  Zone of inhibition Escherichia coli: 0 mm
[2]; [13]
  Zone of inhibition Staphylococcus aureus: 0 mm
[3]; [13]
  Zone of inhibition Bacillus subtilis: 0 mm
